Source: patent US9212205B2, “Nucleic acid binding compounds and methods of use” (University of Rochester, priority 2007, dated 2015)
Like-named read-outs stand apart in the source and are kept apart here.

Key:
[1] = biological target: (CUG)/(CAG) complimentary RNA (SEQ ID NO:10); experiment: Fluorescence titration (FT), SEQ ID NO:10; assay type: binding; set-up: key to KD: NC = Not Calculable.; NS = Not Saturatable
Method: (§1) To test specificity and to confirm the determined binding affinities, filter binding assays and fluorescence titrations were performed with SEQ ID NOS: 7-11 (Table 5), and the HIV-1 frameshift stimulating RNA hairpin used in preceding Examples (SEQ ID NO:1, Table 5). Fluorescence titrations were performed using a Varian Cary Eclipse spectrophotometer. 2 μl of 50 or 500 μM small molecule were titrated into 400 μl of FAM labeled RNA sequences an allowed to equilibrate for at least 10 minutes, or until no change in fluorescence spectra was observed. Changes in fluorescence emission at 518 nm (excitation at 490 nm) were measured. Raw data were corrected for dilution dependant changes, and Em518 was plotted against small molecule concentration and fit to the one site binding equation y=(bmaz*x)/(KD+x).) Competition experiments utilizing target RNA (SEQ ID NO:7) and a 20-fold molar excess of total yeast tRNA were performed to measure non-specific RNA binding (Luedtke et al., “RNA-Ligand Interactions: Affinity and Specificity of Aminoglycoside Dimers and Acridine Conjugates to the HIV-1 Rev Response Element,” Biochemistry 42:11391-11403 (2003), which is hereby incorporated by reference in its entirety). Compound 1-1, the HIV-1 RNA ligand, served as a negative control.

[2] = biological target: (CUG) repeat RNA SEQ ID NO:7; experiment: Filter binding assay (FBA), SEQ ID NO:7; conditions: FBA, read-out: KD
Method: (§2) A filter binding assay system was utilized to provide a rapid initial assessment of binding affinity. All binding studies were performed in PBS pH 7.2+1 mM MgCl2 at 22° C. Various concentrations of small molecules were incubated with 10 nM FAM-labeled RNA in a total volume of 50 μl for 20 minutes. A slot blot apparatus was then assembled with a wet nitrocellulose filter, on top of a wet nylon filter, on top of filter paper. 40 μl of each binding mixture was then loaded into an individual well of the apparatus and allowed to penetrate the filters for 10 minutes. The peptidic disulfides selected from the DCL efficiently bind to the nitrocellulose filter. In contrast, the FAM-labeled RNA strands penetrate the nitrocellulose filter and are bound by the nylon filter. As such, RNA bound by the peptidic library members remains bound on the nitrocellulose filter, and unbound RNA passes to the nylon filter.
(§3) Densitometric analysis of the ratio of labeled RNA on the nitrocellulose to nylon filters allows quantification of binding (FIG. 15A). All binding isotherms were fit to the logistic binding model (Equation 1 above). The repetitive nature of the target sequences may in some cases result in binding stoichiometries that are more complex than a simple 1:1 interaction.
as §1

[3] = biological target: HIV-1 frameshift stimulating RNA hairpin (SEQ ID NO:1); experiment: Filter binding assay (FBA), SEQ ID NO:1
Method: as §2, §3, §1

[4] = biological target: variant (CUG) stem RNA (SEQ ID NO:9); experiment: Filter binding assay (FBA), SEQ ID NO:9
Method: as §2, §3, §1

[5] = biological target: (CUG) loop RNA (SEQ ID NO:11); experiment: Filter binding assay (FBA), SEQ ID NO:11
Method: as §2, §3, §1

[6] = biological target: (CUG)109 RNA (SEQ ID NO:8); experiment: Filter binding assay (FBA), SEQ ID NO:8
Method: as §2, §3

[7] = biological target: (CUG) loop RNA (SEQ ID NO:11); experiment: Fluorescence titration (FT), SEQ ID NO:11; assay type: binding; set-up: key: NC = Not Calculable.; NS = Not Saturatable
Method: as §1

[8] = biological target: (CUG)/(CAG) complimentary RNA (SEQ ID NO:10); experiment: Filter binding assay (FBA), SEQ ID NO:10
Method: as §2, §3, §1

[9] = biological target: variant (CUG) stem RNA (SEQ ID NO:9); experiment: Fluorescence titration (FT), SEQ ID NO:9; assay type: binding
Method: as §1

[10] = biological target: (CUG) repeat RNA SEQ ID NO:7; experiment: Fluorescence titration (FT), SEQ ID NO:7; assay type: binding
Method: as §1

[11] = biological target: HIV-1 frameshift-inducing RNA stem-loop (SEQ ID NO:1); experiment: Fluorescence titration of Cy-3 labeled HIV-1 RNA stem-loop; assay type: binding
Method: The binding of dicarba analogs to the HIV-1 frameshift-inducing RNA was measured using fluorescence spectroscopy. Fluorescence titrations were performed on a Varian Cary eclipse fluorescence spectrophotometer using 1 cm path-length quartz fluorescence cell. The solution of Cy-3 labeled HIV-1 RNA stem-loop in PBS buffer (400 μL, 400 nM) was taken in the cell and excited with a wavelength of 550 nm. A PMT voltage of 715 V was used for collecting the fluorescence data and the emission spectrum was collected from 555 to 600 nm wavelength range. The ligand solution in PBS buffer was added to the target RNA in the cell in either 2 or 4 μL increments and was allowed to equilibrate for 10 minutes before recording the emission spectrum. Statistical analysis of the data was carried out using Origin 7 (OriginLab corporation). Binding constants were determined by fitting the data to one-site binding model equation.
A 5′-Cy3 labeled upper stem-loop of HIV-1 RNA (SEQ ID NO:1) was titrated with increasing amount of the dicarba analogs in a phosphate buffer (PBS, pH 7.4) using the same protocol to that described in Example 3 above. The fluorescence intensity of the labeled RNA stem-loop decreased as a function of the ligand concentration. […] Normally, one would expect a greater difference between the affinities of the two isomers.
To further evaluate the binding selectivity of dicarba analogs to the frameshift-inducing stem-loop, fluorescence titrations were repeated in the presence of twenty-fold excess concentration of yeast tRNA. […] In an interesting result it was discovered that the monomeric compound (5) also bound to the HIV-1 RNA stem-loop with similar affinity as that of the other analogs, but the binding affinity was diminished in the presence of tRNA. […] Quinoline is a known intercalator of nucleotide bases and has the capability to interact with RNA non-specifically. But it is the peptidic part of the molecule in ligands 5-5 E and 5-5 Z that imparts specificity to the interaction between the ligand and the RNA stem-loop. The peptidic part on monomer 5 is insufficient to impart specificity to the interaction as evident from the results.

[12] = biological target: (CUG)109 RNA (SEQ ID NO:8)-MBNL1 protein interaction; experiment: Enzyme Fragmentation Complementation (EFC) assay of (CUG)109-MBNL1 binding inhibition; assay type: biochemical
Method: Small molecule-mediated inhibition of (CUG)109-MBNL1 binding was determined using an Enzyme Fragmentation Complementation (EFC) assay (Eglen et al., “β-Galactosidase Enzyme Fragment Complementation as A Novel Technology for High Throughput Screening,” Comb. Chem. High Throughput Screening 6:381-387 (2003), which is hereby incorporated by reference in its entirety). Briefly, this was performed by first immobilizing (CUG)109 RNA (SEQ ID NO:8) to a 96 well plate. Next, the immobilized RNA was incubated with recombinant MBNL1 fused to the PL enzyme donor peptide (PL-MBNL1, where “PL” is the commercial “ProLabel” enzyme donor peptide) (DiscoveRx PathHunter ProLabel Detection kit) in the presence of varying concentrations of small molecule inhibitor. The Enzyme Acceptor (EA-β-galactosidase) complement was then added, and the activity of the resulting plate—(CUG)109 bound (PL-MBNL1)-(EA-β-galactosidase) activity was monitored via a chemiluminsecent substrate. Only the EA-β-Gal bound to the PL-MBNL1 is capable of performing the luminescent reaction and, as such, any luminescence correlates to the amount of MBNL1 bound to the (CUG)109 immobilized on the plate. Wells lacking (CUG)109 RNA served as a background measure of non-specific luminescence and were subtracted from each experiment to yield a 0% bound value. Wells containing no small molecule inhibitor added served as 100% bound. […]

[13] = assay type: physicochemical
Method: The oxidation of 1-1 (FIG. 13, Scheme 2) to the disulfoxide was achieved by reacting 1-1 with H2O2 (1.1 eq.) and MoClO2 (0.05 eq) in 1:1 acetonitrile:water for 15 minutes, followed by purification by RP-HPLC (Jeyakumar et al., “Selective Oxidation of Sulfides to Sulfoxides and Sulfones at Room Temperature Using H2O2 and Mo(VI) Salt as Catalyst,” Tettrahedron Letters 47:4573-76 (2006), which is hereby incorporated by reference in its entirety).

[14] = 8 μM tRNA (twenty-fold excess), stem-loop 4 × 10^−7 M, PBS buffer, 25° C., read-out: Binding Affinity (Kd) in the presence of excess yeast tRNA
[15] = fluorescence titration, stem-loop 4 × 10^−7 M, PBS buffer, 25° C., read-out: Binding Affinity (Kd)

| Structure (SMILES) | KD [1] | Kd ([2]; SEQ ID NO: 7 + 20 x tRNA) [µM] | Kd ([2]; SEQ ID NO: 7) [µM] | Kd [3] [µM] | Kd [4] [µM] | Kd [5] [µM] | Kd [6] [µM] | KD [7] | Kd [8] [µM] | Kd [9] [µM] | Kd ([10]; SEQ ID NO: 7) [µM] | Kd ([10]; SEQ ID NO: 7 + 20 x tRNA) [µM] | Kd [11, 15] [µM] | also measured |
| --- | --- | --- | --- | --- | --- | --- | --- | --- | --- | --- | --- | --- | --- | --- |
| CCc1nc2ccccc2cc1C(=O)N[C@@H](CC(N)=O)C(=O)N[C@@H](CSSC[C@H](NC(=O)[C@@H]1CCCN1C(=O)c1cc2ccccc2nc1CC)C(=O)N[C@@H](CCCCN)C(=O)NCCCN)C(=O)N[C@@H](CCCCN)C(=O)NCCCN [dimer 7-9] | NC | 10 ± 0.7 | 4.5 ± 0.6 | 22 ± 2 | 6.4 ± 1 | 4.6 ± 0.1 | 2.1 | NC | 19.5 ± 1 | 1.6 | 2.1 | 2.9 |  |  |
| CCc1nc2ccccc2cc1C(=O)N1CCC[C@H]1C(=O)N[C@@H](CSSC[C@H](NC(=O)[C@@H]1CCCN1C(=O)c1ccc2c(c1)OCO2)C(=O)N[C@@H](CCCCN)C(=O)NCCCN)C(=O)N[C@@H](CCCCN)C(=O)NCCCN [dimer 8-9] | NC | 9.6 ± 0.7 | 4.1 ± 0.2 | 16 ± 4 | 4.7 ± 0.1 | 6 ± 0.1 | 1.9 | NC | 21 ± 1.8 | 2.6 | 2.1 | 4.2 |  |  |
| CCc1nc2ccccc2cc1C(=O)N1CCC[C@H]1C(=O)N[C@@H](CSSC[C@H](NC(=O)[C@@H]1CCCN1C(=O)c1cc2ccccc2nc1CC)C(=O)N[C@@H](CCCCN)C(=O)NCCCN)C(=O)N[C@@H](CCCCN)C(=O)NCCCN [dimer 9-9] |  | 18 ± 2.1 | 6.7 ± 0.2 | 24 ± 5 | 7.1 ± 1.1 | 8.5 ± 0.1 | 2.1 | NS | > 40 | 1.7 | 2.2 | 3.4 |  | Kd [1]: 17 µM |
| CCc1nc2ccccc2cc1C(=O)N[C@@H](C/C=C\C[C@H](NC(=O)c1cc2ccccc2nc1CC)C(=O)N1CCC[C@H]1C(=O)N[C@@H](Cc1ccccc1)C(=O)NCCCN)C(=O)N1CCC[C@H]1C(=O)N[C@@H](Cc1ccccc1)C(=O)NCCCN [dimer 5-5 Z] |  |  |  |  |  |  |  |  |  |  |  |  | 0.24 ± 0.05 | Kd [11, 14]: 0.29 µM |
| C=CC[C@H](NC(=O)c1cc2ccccc2nc1CC)C(=O)N1CCC[C@H]1C(=O)N[C@@H](Cc1ccccc1)C(=O)NCCCN [monomer 5] |  |  |  |  |  |  |  |  |  |  |  |  | 0.37 ± 0.02 | Binding Affinity (Kd) in the presence of excess yeast tRNA ([11]; 8 μM tRNA (twenty-fold excess), stem-loop 4 × 10^−7 M, PBS buffer, 25° C.): No binding |
| NCCCCC(NC(=O)C(CSSCC(NC(=O)C(CC(N)=O)NC(=O)c1ccc2c(c1)OCO2)C(=O)NC(CCCCN)C(=O)NCCCN)NC(=O)C(CC(N)=O)NC(=O)c1ccc2c(c1)OCO2)C(=O)NCCCN (stereo not drawn) [dimer 6-6] |  |  |  |  |  |  |  |  |  |  |  |  |  | Ki, inhibition of the (CUG)n MBNL1 interaction [12]: do not show any inhibitory effect |
| CCc1nc2ccccc2cc1C(=O)N[C@@H](C/C=C/C[C@H](NC(=O)c1cc2ccccc2nc1CC)C(=O)N1CCC[C@H]1C(=O)N[C@@H](Cc1ccccc1)C(=O)NCCCN)C(=O)N1CCC[C@H]1C(=O)N[C@@H](Cc1ccccc1)C(=O)NCCCN [dimer 5-5 E] |  |  |  |  |  |  |  |  |  |  |  |  | 0.41 ± 0.02 | Kd [11, 14]: 0.45 ± 0.09 µM |
| CCc1nc2ccccc2cc1C(=O)N[C@@H](C[S+]([O-])[S+]([O-])C[C@H](NC(=O)c1cc2ccccc2nc1CC)C(=O)N1CCC[C@H]1C(=O)N[C@@H](Cc1ccccc1)C(=O)NCCCN)C(=O)N1CCC[C@H]1C(=O)N[C@@H](Cc1ccccc1)C(=O)NCCCN (stereo partly drawn) [1-1 disulfoxide] |  |  |  |  |  |  |  |  |  |  |  |  |  | degradation after synthesis [13]: degraded within a few hours of synthesis; Kd ([11]; freshly prepared compound, read-out: KD, fluorescence titration with the HIV1 frameshift inducing stemloop): 0.41 µM |
| NCCCC[C@H](NC(=O)[C@H](CSSC[C@H](NC(=O)[C@@H]1CCCN1C(=O)c1ccc2c(c1)OCO2)C(=O)N[C@@H](CCCCN)C(=O)NCCCN)NC(=O)[C@@H]1CCCN1C(=O)c1ccc2c(c1)OCO2)C(=O)NCCCN [dimer 8-8] | NC | 14 ± 4 | 5.4 ± 0.6 | 41 ± 9 | 9.3 ± 0.4 | 7.5 ± 0.9 | 2.5 | NC | 21 ± 1.4 | 2.1 | 1.4 | 2.4 |  |  |
